In patent US20260215427A1, “NON-BIPYRIDYL SALT HERBICIDE, PREPARATION METHOD THEREFOR, AND USE THEREOF” (priority 2022, published 2026):

Tests used:
[1] = system: Arabidopsis thaliana; assay: Herbicidal performance, leaf spray under air and sunlight; type: in vivo
Source text: (§1) As is well-known, Bermuda grass, Arabidopsis thaliana, and Acorus calamus are naturalized green weeds in most parts of the world and are also invasive grasses. Photosynthesis occurs throughout their entire leaves and bundles. […] Therefore, Bermuda grass, Acorus calamus, and Arabidopsis thaliana were selected as plant models to evaluate the herbicidal performance of the compounds in the present invention.
(§2) Under air and sunlight, the compound of formula 2 of the present invention was sprayed on the leaf surface at concentrations of 1, 2, 4, and 8 times the PQ equivalent, respectively. Paraquat herbicide was used as the positive control, and physiological saline was used as the blank control group. The diameter of the observation range was 8 cm.

[2] = system: Bermuda grass; assay: as above; type: in vivo
Source text: as §1, §2

[3] = system: Acorus calamus; assay: as above; type: in vivo
Source text: as §1, §2

[4] = Conversion of the compound of formula 2 to PQ under lighting and air conditions in physiological saline; type: physicochemical; details: air; for Yield (conversion to PQ): darkness, 72 h; for Yield (conversion rate to PQ): natural light, 24 h
[5] = system: mice; assay: Damage of major organs (histopathology) 48 hours after intraperitoneal injection in mice; type: in vivo; details: 48 hours after intraperitoneal administration
Source text: The data is expressed as mean±standard error, with 6 mice per group (n=6), and P<0.05 indicates statistically significant differences. Scale bar: 50 μm.

[6] = system: Arabidopsis thaliana; assay: Herbicidal mechanism: LC-MS, chlorophyll and photosystem parameters, electron microscopy after spraying; type: in vivo
[7] = system: A549 cells; assay: Apoptosis, Annexin V-FITC and propidium iodide staining; type: cell-based; details: 24 hours of incubation
Source text: (§3) The data was expressed as + SEM. *p<0.05, p<0.05, **p<0.01, ***p<0.001, ****p<0.0001.

[8] = system: COS-7 cells; assay: as above; type: cell-based; details: 24 hours of incubation
Source text: as §3

[9] = system: Hep G2 cells; assay: as above; type: cell-based; details: 24 hours of incubation
Source text: as §3

[10] = Acute toxicity test and LD50 determination in mice, intraperitoneal injection; type: in vivo; details: mouse, in vivo, ip; mice, intraperitoneal injection, seventh day
Protocol: (§4) In order to evaluate the safety of compound 2 of the present invention in vivo, acute toxicity tests were conducted on mice. Firstly, the LD50 of diene diamine in mice was measured. […] The toxicity of diene diamine in mice is low and the safety is high.

[11] = system: mice; assay: as above; type: in vivo
Protocol: as §4

[12] = Direct cytotoxicity, cell viability and IC50; type: cell-based; details: 24 hours
Source text: (§5) PQ is rapidly absorbed and distributed to the lungs, kidneys, liver, and muscles after entering the human body. Death caused by ingestion of PQ is usually due to multiple organ failure, such as pulmonary edema, kidney and liver failure. Therefore, lung cells (A549 cells), kidney cells (COS-7), and liver cells (Hep G2) were selected to evaluate the direct cytotoxicity of diene diamine.

[13] = system: A549 cells; assay: Direct cytotoxicity, cell viability and IC50; type: cell-based
Source text: as §5

[14] = system: COS-7 cells; assay: Direct cytotoxicity, cell viability and IC50; type: cell-based
Source text: as §5

[15] = system: Hep G2 cells; assay: Direct cytotoxicity, cell viability and IC50; type: cell-based
Source text: as §5

[16] = system: mice; assay: Survival rate and body weight of mice after intraperitoneal injection; type: in vivo; details: 0.19 mmol/kg intraperitoneal
[17] = system: A549 cells; assay: Intracellular ROS levels, DCF fluorescence, flow cytometry; type: cell-based; details: 100 μM, 18 hours
Protocol: (§6) The above three types of cells were exposed to 100 μM PQ (100) and 100 μM of the compound of formula 2 and incubated for 18 hours, and the intracellular reactive oxygen species (ROS) levels were quantified using flow cytometry. Intracellular ROS levels were measured using DCF fluorescence (n=6).

[18] = system: COS-7 cells; assay: as above; type: cell-based; details: 100 μM, 18 hours
Protocol: as §6

[19] = system: Hep G2 cells; assay: as above; type: cell-based; details: 100 μM, 18 hours
Protocol: as §6

[20] = system: mice; assay: Transmission electron microscopy of main organs 48 hours after intraperitoneal injection in mice; type: in vivo; details: 0.19 mmol/kg intraperitoneal
Protocol: 48 hours after intraperitoneal injection of 0.19 mmol/kg of paraquat or the compound of formula 2, transmission electron microscopy samples of the lung, liver, kidney, and heart were collected. The black arrow indicated mitochondrial damage, and the electron microscopy scale of the heart group was 200 nm, and the electron microscope scale of other groups was 100 nm.

[21] = system: mice; assay: Organ indices and biochemical indicators 48 hours after intraperitoneal injection in mice; type: in vivo
Source text: P<0.05 is considered statistically significant, with 10 mice per group (n=10).
However, no significant differences in these biochemical indicators were detected after intraperitoneal injection of the compound of formula 2 diene diamine at the same molar concentration.

[22] = system: Bermuda grass; assay: Herbicidal performance of the compound of formula 3, leaf spray, diquat as positive control; type: in vivo; details: air and sunlight
Source text: Under air and sunlight, the compound of formula 3 of the present invention was sprayed on the surface of leaves, with herbicide diquat as a positive control. The diameter of the observation range was 10 cm.

[23] = various concentrations (1, 2, 4, 8 times PQ equivalent), air and sunlight
[24] = 25 °C, listed as diene diamine compound
[25] = 50 mg/kg paraquat or same dose, 48 hour

With `CN1CC=C(C2=CCN(C)CC2)CC1` [compound of formula 2, 1,1′-dimethyl-1,1′, 2,2′, 3,3′, 6,6′-octahydro-4,4′-bipyridine] the “weed control effect compared with PQ” value ([1]; same or twice the dose of PQ) was “slightly delayed weed control effect”, the “state of leaves 24 hours after spraying” value [1, 23] was “began to wither” and the “weed control effect compared with PQ” value ([2]; same or twice the dose of PQ) was “slightly delayed weed control effect”. For the same molecule, the “state of leaves 24 hours after spraying” value [2, 23] was “began to wither”, the “weed control effect compared with PQ” value ([3]; same or twice the dose of PQ) was “slightly delayed weed control effect” and the “state of leaves 24 hours after spraying” value [3, 23] was “began to wither”. The “Yield (conversion to PQ)” value ([4]; 25 °C) was 0%, the “Yield (conversion to PQ)” value [4, 24] was “hardly converted to PQ” and the “Yield (conversion rate to PQ)” value ([4]; 25 °C) was 30%. The “Yield (conversion rate to PQ)” value [4, 24] was “about 30%”, the “Yield (conversion rate to PQ)” value ([4]; 40 °C) was 63% and the “Yield (conversion rate to PQ)” value ([4]; 40 °C, listed as diene diamine compound) was “about 63%”. For the same molecule, the “pathological damage of major tissues (lung, liver, kidney, heart)” value [5] was “no significant pathological damage”, the “electron microscopy findings after 8 hours” value [6] was “chloroplast stroma lysis, swelling of thylakoids and mitochondrial cristae” and the “electron microscopy findings after 24 hours” value [6] was “rupture of mesophyll cell nuclei, mitochondria, and chloroplast envelopes”. For the same molecule, the “chlorophyll content, maximum fluorescence quantum yield of PSII, Fv/Fm value, and SPAD” value ([6]; natural sunlight and air) was “significant decreases”, the “apoptosis rate compared to the PQ group” value [7] was “significantly reduced” and the “apoptosis rate compared to the PQ group” value [8] was “significantly reduced”. The “apoptosis rate compared to the PQ group” value [9] was “significantly reduced”, the LD50 at 7 day [10] was 1000 mg/kg and the deaths ([11]; 1200 mg/kg intraperitoneal, 8 mice) was “Eight mice died”. The survival ([11]; 300 and 600 mg/kg intraperitoneal, third day after administration) was “all mice survived”, the deaths ([11]; 900 and 1050 mg/kg intraperitoneal, respectively, 8 mice per dose) was “Three mice died” and the IC50 ([12]; African green monkey, Cos-7 cells) was 1570 µM. The IC50 ([12]; human, A549 cells) was 5770 µM, the IC50 ([12]; human, hep G2 cells) was 1360 µM and the cell viability ([13]; A549, co-culture 24 hours, concentration gradient) was “no significant changes in cell viability”. The “IC50 value relative to the PQ treatment group” value ([13]; A549 cells) was “increased by dozens of times”, the cell viability ([14]; COS-7, co-culture 24 hours, concentration gradient) was “no significant changes in cell viability” and the “IC50 value relative to the PQ treatment group” value ([14]; COS-7 cells) was “increased by dozens of times”. For the same molecule, the cell viability ([15]; Hep G2, co-culture 24 hours, concentration gradient) was “no significant changes in cell viability”, the “IC50 value relative to the PQ treatment group” value ([15]; Hep G2 cells) was “increased by dozens of times” and the “weight of the mice” value [16] was “continued to steadily increase”. For the same molecule, the survival ([16]; after 168 hours) was “all mice in the group of the compound of formula 2 survived”, the “intracellular ROS production” value [17] was “no significant changes” and the “intracellular ROS production” value [18] was “no significant changes”. The “intracellular ROS production” value [19] was “no significant changes”, the “mitochondrial structure in lung, liver, kidney, and heart tissues (transmission electron microscopy)” value [20] was “No significant mitochondrial structural damage” and the “levels of SOD and CAT in lung tissue” value [21, 25] was “no significant changes”. For the same molecule, the “serum levels of TNF-α, IL-B, IL-6, AST, ALT, SCr, BUN, and uric acid” value [21, 25] was “no significant changes”, the “lung, liver, and kidney indices compared with the control group” value ([21]; 50 mg/kg paraquat or same molar dose, 48 hours) was “no statistical difference” and the cardiac index ([21]; 50 mg/kg paraquat or same molar dose, 48 hours, among the three groups) was “no statistical difference”.
In the case of `C1=CCN2CCN3CC=CCC3C2C1` (stereo not drawn) [compound of formula 3, 1,4,6,7,9,12,12a, 12b octahydrodipyridin [1,2-a: 2′, 1′-c]pyrazine], the “weed control effect relative to diquat” value [22] is reported as “comparable to that of diquat”, the “state of leaves 3 days after spraying” value ([22]; concentration not specified) is reported as “began to wither” and the “state of leaves after 5 days” value ([22]; concentration not specified) is reported as “completely withered”.
